This is an account of results in paper PMC8196580, “Identification of Kaurane-Type Diterpenes as Inhibitors of Leishmania Pteridine Reductase I” (Molecules, 2021).

Read-outs that look alike come from different tables or passages of the source.

For experiment [1], the system named is L. major. The experiment can be described thus: ChEMBL dataset of pIC50 values against L. major used for the RF model (Table S1). In kind it is cell-based, Leishmania major.
Experiment [2] relates to L. major. Also noted: method as in ChEMBL. As to conditions: ref ChEMBL, cited from earlier work; call rule not given here.
Where [3] appears, read: Active/Inactive class assigned to ChemBL structures for Random forest model construction (Table S1).
The mark [4] stands for this setting: ChemBL structures with pIC50 values used for Random forest model construction (Table S1).
The mark [5] stands for this setting: Active/Inactive class assigned to the ChEMBL pIC50 value for Random forest model construction, ref ChEMBL.
The mark [6] stands for this setting: ChemBL structures with pIC50 values used for Random forest model construction, L. major.

With `CC(C)Oc1cc(NC(=N)c2ccccn2)ccc1-c1ccc(-c2ccc(NC(=N)c3ccccn3)cc2OC(C)C)o1` [CHEMBL1275764], the Outcome entry in experiment [1] (setting [3]) is on record as “Active”. Further, in experiment [2] (setting [4]), the “pIC50 Value” is reported as 7.85.

On to `COc1ccc(-c2c(-c3ccccc3)nc3ccccn23)cc1` [CHEMBL2151858], for which the Outcome result in experiment [1] (setting [5]) is reported as “Active”. The “pIC50 Value” in experiment [2] (setting [6]) is 5.14.

Turning to `CC(C)C1=CC(=O)C2=C(CC[C@H]3C(C)(C)CCC[C@]23C)C1=O` [CHEMBL3355361], the Outcome result in experiment [1] (setting [3]) is “Active”. Besides, the “pIC50 Value” in experiment [2] (setting [4]) is on record as 6.74.

Consider `CC1=C(C(=O)Nc2ccc(C(=O)/C=C/c3ccc(O)cc3)cc2)C(c2cccc(O)c2)NC(=S)N1` (stereo not drawn) [CHEMBL3785704], for which the Outcome entry in experiment [1] (setting [3]) is given as “Active”. Besides, the “pIC50 Value” in experiment [2] (setting [4]) is 5.98.

Turning to `O=C(CN1CCOCC1)Nc1ccc2ncnc(Nc3ccc(OCc4cccc(F)c4)c(Cl)c3)c2c1` [CHEMBL3637894], the Outcome entry in experiment [1] (setting [5]) is “Inactive”. Further, in experiment [2] (setting [6]), the “pIC50 Value” is listed as 4.91.

With `CSc1ccc(Nc2ncnc3ccc([N+](=O)[O-])cc23)cc1` [CHEMBL3758748], the Outcome entry in experiment [1] (setting [3]) is “Active”. In addition, the “pIC50 Value” in experiment [2] (setting [4]) is 5.73.

As to `O=C(c1ccc(Cl)s1)N1CCN(c2nnc(-c3ccc([N+](=O)[O-])o3)s2)CC1` [CHEMBL516307], the Outcome result in experiment [1] (setting [5]) was “Inactive”. In experiment [2] (setting [6]), the “pIC50 Value” is reported as 4.93.

As to `COc1ccccc1NC(=O)CCC(=O)O` [CHEMBL1605594], in experiment [1] (setting [3]), the Outcome result is “Active”. Further, in experiment [2] (setting [4]), the “pIC50 Value” is recorded as 7.81.

In the case of `COCC1=C(C(=O)OC)C(c2cccc([N+](=O)[O-])c2)NC(=O)N1` (stereo not drawn) [CHEMBL3786102], the Outcome entry in experiment [1] (setting [3]) is on record as “Active”. In addition, the “pIC50 Value” in experiment [2] (setting [4]) is 5.53.

`CC(C)(C)C(=O)Oc1ccc(-c2c(-c3ccccc3)nc3ccccn23)cc1` [CHEMBL2151861]: the Outcome entry in experiment [1] (setting [5]) was “Active”. For the same compound, the “pIC50 Value” in experiment [2] (setting [6]) is 5.15.

With `COC(=O)C1=C(C)NC(C)=C(C(=O)OC)C1c1ccccc1[N+](=O)[O-]` [CHEMBL193], the Outcome result in experiment [1] (setting [5]) was “Inactive”. In experiment [2] (setting [6]), the “pIC50 Value” is 3.74.

Regarding `O=C(O)c1ccc(-c2c(-c3ccccc3)nc3ccccn23)cc1` [CHEMBL2151867], the Outcome entry in experiment [1] (setting [5]) is on record as “Inactive”. The “pIC50 Value” in experiment [2] (setting [6]) was 4.00.

Regarding `Cn1c([N+](=O)[O-])cnc1-c1nnc(N2CCN(C(=O)c3cccc(Cl)c3)CC2)s1` [CHEMBL482665], in experiment [1] (setting [5]), the Outcome entry is given as “Inactive”. The “pIC50 Value” in experiment [2] (setting [6]) is on record as 4.75.

As for `O=[N+]([O-])c1ccc(-c2nnc(N3CCN(c4ccccc4)CC3)s2)o1` [CHEMBL448103], the Outcome result in experiment [1] (setting [3]) was “Active”. Also, in experiment [2] (setting [4]), the “pIC50 Value” is listed as 7.00.

Turning to `Fc1cccc(Cl)c1Cc1nn2c(-c3ccccc3)nnc2s1` [CHEMBL1256825], the Outcome result in experiment [1] (setting [5]) is given as “Inactive”. In addition, the “pIC50 Value” in experiment [2] (setting [6]) is listed as 4.00.

`O=C(c1cccc(Cl)c1)N1CCN(c2nnc(-c3ccc([N+](=O)[O-])o3)s2)CC1` [CHEMBL458527]: the Outcome entry in experiment [1] (setting [5]) is reported as “Inactive”. The “pIC50 Value” in experiment [2] (setting [6]) is on record as 4.88.

In the case of `Cc1ccc(Cl)cc1Nc1ncnc2ccc([N+](=O)[O-])cc12` [CHEMBL3758550], the Outcome result in experiment [1] (setting [5]) was “Inactive”. Also, the “pIC50 Value” in experiment [2] (setting [6]) was 4.35.

`CC1=C(C(=O)Nc2ccc(C(=O)/C=C/c3cccc([N+](=O)[O-])c3)cc2)C(c2ccc(C)cc2)NC(=S)N1` (stereo not drawn) [CHEMBL3786068]: in experiment [1] (setting [3]), the Outcome entry is reported as “Active”. Besides, the “pIC50 Value” in experiment [2] (setting [4]) is listed as 5.90.

For `COc1cc(C)cc2c1C(=O)C=C(c1c(C)cc3ccc(O)c(OC)c3c1O)C2=O` [CHEMBL2071226], in experiment [1] (setting [3]), the Outcome result is “Active”. In experiment [2] (setting [4]), the “pIC50 Value” is on record as 9.74.

`CC1=C(C(=O)OC(C)C)C(c2cccc([N+](=O)[O-])c2)C(C(=O)OC2CN(C(c3ccccc3)c3ccccc3)C2)=C(N)N1` (stereo not drawn) [CHEMBL1275868]: the Outcome result in experiment [1] (setting [5]) is reported as “Inactive”. For the same compound, the “pIC50 Value” in experiment [2] (setting [6]) was 4.77.

Regarding `CCC/C=C/C=C/c1nc2ccc(OC)cc2n2cccc12` [CHEMBL3260212], the Outcome entry in experiment [1] (setting [5]) is “Active”. Besides, the “pIC50 Value” in experiment [2] (setting [6]) was 5.13.
